# Results taken from US12582605B2, “Extended release formulations of cannabinoids” (Glatt GmbH, priority 2018, dated 2026).
# Assays:
# [1] = pH values ranging from 1.2 to 7.0; cited from earlier work
# [2] = Dissolution test, release of probucol (USP Type II paddle, purified water); format: physicochemical; conditions: after / through 24 hours
# Description: (§1) A dissolution test was conducted on the compositions using purified water, USP, as the dissolution medium in a dissolution volume of 900 ml. A USP Type II paddle apparatus was used to mix the dissolution medium at a paddle speed of 75 rpm. The bath temperature was 37° C., and a 10-μm porous filter was used to sample aliquots.
# as §1, with “Example Compositions D-H” for “the compositions”
# [3] = oral administration; cited from earlier work
compound,measurement,setting,value
CCCCCCC(C)(C)c1cc(O)c2c(c1)OC(C)(C)C1CCC(=O)CC21 (stereo not shown) [nabilone],solubility in aqueous media,[1],less than 0.5 mg/L
Tween® 80,drug release (probucol),[2],88 % w/w
"CCCCCc1cc(O)c2c(c1)OC(C)(C)[C@@H]1CCC(C)=C[C@@H]21 [THC, Δ9-tetrahydrocannabinol]",duration of action,[3],2 to 4 h
same,duration of psychoactive action,[3],4 to 6 h
